Measured values taken from patent US11708283B2, “Metal-chelating compositions and their use in methods of removing or inhibiting barium scale” (CORNELL UNIVERSITY, priority 2018, dated 2023).

How the values were obtained:
[1] = Dissolution of barium sulfate suspension (GFAAS); conditions: for BaSO4 dissolved: 30 minutes
Procedure: First, a suspension of BaSO4 in pH 8 NaHCO3 was formed by combining Ba(NO3)2 (4.53 mM) with excess Na2SO4 (13.48 mM), simulating the mixing of incompatible waters that produces BaSO4 scale in petroleum operations. The resulting BaSO4 suspension was treated with ligand (5 mM), and the amount of dissolved Ba^2+ was measured by GFAAS.
More specifically. BaSO4 dissolution experiments at pH 8 were performed in NaHCO3 (1 M, pH=7.9-8.0); dissolution studies at pH 11 were performed in Na2CO3 (1 M, pH adjusted to 10.98 using concentrated HCl). […] The concentration of the DOTA stock solution was calculated from the mass of the ligand used (255.5 mg). A solution of Na2SO4 (293 mM) was prepared in water. The barium source for this experiment was an ICP standard solution of Ba(NO3)2 (72.99 mM; 10023 μg/mL) in 2% v/v HNO3.
Dissolution studies were carried out in 2 mL borosilicate vials equipped with identical magnetic stir bars (6.4×3 mm). Each BaSO4 suspension was prepared independently by mixing Ba(NO3)2 and Na2SO4 in 1 M NaHCO3 or Na2CO3 to give final concentrations of 4.53 mM (621,426 μg/L) and 13.48 mM, respectively. Dissolution was initiated by the addition of an aliquot of ligand (5 mM final concentration, 1.1 equiv with respect to Ba^2+) to each suspension. Controls (pH 8) received an aliquot of water instead of ligand. The suspensions were stirred at room temperature (22±1° C.) at a rate of 550 RPM. At time points of 5 min (pH 11 only), 10 min, 20 min, and 30 min, the suspensions were filtered through nylon syringe filters (either 0.2 μm or 0.22 μm), and the filtrates were analyzed as described below. The dissolution experiments were performed in triplicate at every time point for each ligand except DOTA, for which 6 replicates were run for 20 min and 30 min time points at pH 8.
The filtered samples were diluted 6565-fold (65×101) with water and analyzed for barium content by GFAAS using the furnace method and instrument parameters discussed earlier above. Standards containing both ligand and barium at the same concentrations employed in the dissolution studies were prepared in either NaHCO3 (pH 8) or Na2CO3 (pH 11); water was substituted for Na2SO4. […] Water was used as the diluent. Following calibration, each sample was analyzed in triplicate and averaged. After the analysis of every three samples, a single measurement of water was made to ensure that there was no carryover of barium. After every three (pH 11) or six (pH 8) samples were analyzed, an independently-prepared Ba-L standard was analyzed a maximum of two times as a quality control check. If the measurement was not within ±10% of the known concentration of barium, the instrument was re-calibrated and the data between the failed calibration check and the previous calibration check was excluded. Data from each time point were averaged and the results are reported as the percentage of barium dissolved. The errors given correspond to 1 standard deviation.

[2] = Thermodynamic stability constants of Ca^2+ complexes by pH-potentiometry; format: binding; conditions: I = 0.1M KCl; for pCa (−log [M^2+]free): [M^2+] = 10^−6M, [L] = 10^−5M, pH 7.4; for pCa (−log [M^2+]free) / log KCaHL / log KCaL: 25° C.; for log K′Ca (conditional stability constant): pH 7.4, 25° C., calculated from protonation and stability constants; for log KCaHL / log KCaL: pH-potentiometry
Procedure: Potentiometric measurements were carried out using a titrator equipped with a combination electrode and an exchange unit with an automatic burette (10 mL). The titration vessel was fitted with a removable glass cell (˜70 mL) and was thermostated at 25° C. using a circulating water bath. CO2 was excluded from the vessel prior to and during the titrations using a small positive pressure of Ar that was passed through a solution of 30 wt % KOH. Carbonate-free KOH (˜0.1 M) was prepared by dissolving KOH pellets (semiconductor grade, 99.99% trace metals basis) in freshly boiled water (≥18 MΩ-cm) and was standardized by potentiometric titration against potassium hydrogen phthalate. Hydrochloric acid (0.1 M) was standardized against freshly prepared KOH. Titration solutions were maintained at a constant ionic strength of 0.1 M using KCl (≥99.5%) and were equilibrated for 15 minutes prior to the addition of titrant. Before every titration, the electrode was calibrated in terms of hydrogen ion concentration by titrating a solution of standardized HCl (5 mM) containing supporting electrolyte (95 mM) with standardized KOH (2 mL). Data within the pH ranges of 2.5-3.2 and 10.8-11.2 were analyzed using software to obtain the standard electrode potential (E0) and slope factor. Owing to the sharp rise in pH at the titration endpoint (pH 3.2-10.8), data obtained in this region are subject to significant error and were therefore excluded from the calibration analysis. A pKw value of 13.78 was taken from the literature (Baes, C. F.; Mesmer, R. E. The Hydrolysis of Cations; Wiley: New York, 1976).
ICP standards of calcium, strontium, and barium in dilute HNO3 were employed in the titrations. The exact amount of HNO3 was determined by potentiometric titration of each metal solution (1 mL), diluted to a known volume with H2O, with standardized KOH to pH ˜7; under these conditions, no precipitation of metal hydroxide species was observed. The data were analyzed using a Gran plot (Gran, G. Analyst 1952, 77, 661-671). Stability constants were measured for the alkaline earth complexes of macropa^2− and macropaquin^2− by adding standardized KOH to a solution (20 mL) containing ligand (0.02 mmol), metal (0.02 mmol), 1 M KCl (1.9 mmol), and a portion of 0.1 M HCl sufficient to bring the total acid content (HCl+HNO3) to 0.1 mmol. The titration method employed either a 0.1 mV/min or 0.2 mV/min drift limit with a maximum wait time of 300 seconds between addition of base and measurement. […] Data points (˜30-90) obtained over the pH ranges of 2.5-10.5 (Ba-macropa), 2.8-10.5 (Sr-macropa), 4.0-10.5 (Ca-macropa), 2.7-11.3 (Ba-macropaquin), and 4.0-11.3 (Sr- and Ca-macropaquin) were included in the refinements. These pH ranges reflect the portion of the titration curves in which metal binding is occurring. Using the protonation constants measured for each ligand, the stability constants (Equations 2-4, below) were calculated from the average of at least 3 independent titrations using appropriate software. Proton concentration was admitted as a refineable parameter. Ligand (L) concentration was taken as the averaged value obtained from the refinements of ligand-only titrations. The errors given for the stability constants correspond to one standard deviation.
The alkaline earth stability constants for macroquin-SO3^4− were determined using a system in which each ligand titration was paired with a ligand-metal titration. These pairwise titrations permitted the ligand concentration for the metal-ligand titrations to be known with reasonable certainty from the refinement of the ligand-only titrations. Immediately following a titration of the free ligand with HCl, metal ion (0.013 mmol) was added and the solution was equilibrated under Ar for 15 minutes before the addition of standardized KOH. The same titration method was employed as described above for macropa^2− and macropaquin^2−. […]

| log KCaHL [2] | log KCaL [2] | SMILES | BaSO4 dissolved ([1]; pH 8, RT, 5 mM ligand) | pCa (−log [M^2+]free) [2] | log K′Ca (conditional stability constant) [2] | BaSO4 dissolution ([1]; pH 11, 30 min) | BaSO4 solubilized ([1]; pH 8, RT, 5 mM ligand, 10 minutes) | BaSO4 solubilized ([1]; pH 11, 5 min) |
| --- | --- | --- | --- | --- | --- | --- | --- | --- |
| 8.59(2) | 5.90(4) | O=C(O)c1cccc(CN2CCOCCOCCN(Cc3ccc4cccc(O)c4n3)CCOCCOCC2)n1 [macropaquin, 6-((16-((8-hydroxyquinolin-2-yl)methyl)-1,4,10,13-tetraoxa-7,16-diazacyclooctadecan-7-yl)methyl)picolinic acid] | 95% | 6.04 | 3.94 | – | – | – |
| – | – | O=C(O)CN1CCN(CC(=O)O)CCN(CC(=O)O)CCN(CC(=O)O)CC1 [DOTA, reference compound] | 40% | 11.29 | 10.34 | 75% | – | – |
| 8.60(4) | 6.04(8) | O=S(=O)(O)c1ccc(O)c2nc(CN3CCOCCOCCN(Cc4ccc5c(S(=O)(=O)O)ccc(O)c5n4)CCOCCOCC3)ccc12 [macroquin-SO3, 2,2′-((1,4,10,13-tetraoxa-7,16-diazacyclooctadecane-7,16-diyl)bis(methylene))bis(8-hydroxyquinoline-5-sulfonic acid)] | – | 6.01 | 3.19 | – | – | – |

| SMILES | log KCaHL [2] | log KCaL [2] | BaSO4 dissolved ([1]; pH 8, RT, 5 mM ligand) | pCa (−log [M^2+]free) [2] | log K′Ca (conditional stability constant) [2] | BaSO4 dissolution ([1]; pH 11, 30 min) | BaSO4 solubilized ([1]; pH 8, RT, 5 mM ligand, 10 minutes) | BaSO4 solubilized ([1]; pH 11, 5 min) |
| --- | --- | --- | --- | --- | --- | --- | --- | --- |
| O=C(O)c1cccc(CN2CCOCCOCCN(Cc3cccc(C(=O)O)n3)CCOCCOCC2)n1 [macropa, 6,6-((1,4,10,13-tetraoxa-7,16-diazacyclooctadecane-7,16-diyl)bis(methylene))dipicolinic acid] | – | 5.79(1) | complete dissolution | 6.54 | 5.42 | – | 78% | > 95% |
